From US11020416B2, “Cancer chemotherapy employing halogenated analogs of thymidine” (priority 2015, dated 2021)
Where two headings read alike, the source gives them in different places.

Key:
PARP1 [1] = molecular target: T1, PARP1 (Homo sapiens, UniProt P09874); assay: Michaelis-Menten kinetic analysis of PARP1 enzymatic activity in solution (FIG. 1); assay type: biochemical
Protocol: Cloned human PARP-1 (8 nanomolar) was incubated with 100 nanomolar dA/dT, 50 micrograms/milliliter histone Hi and varying concentrations (50, 150, 450 micromolar) of ^32P-NAD^+ in the absence and presence of inhibitor (50 micromolar) at physiological pH (7.3) as described (E. Kirsten, E. Kun, J. Mendeleyev, C. P. Ordahl, Methods in Molecular Biology 287 137 (2004) and Kun, 2004 op cit). Reactions were started by the addition of PARP-1 and incubated for 10 minutes at room temperature after which acid precipitable ^32P was determined.
Target sequence in this assay (P09874 whole entry): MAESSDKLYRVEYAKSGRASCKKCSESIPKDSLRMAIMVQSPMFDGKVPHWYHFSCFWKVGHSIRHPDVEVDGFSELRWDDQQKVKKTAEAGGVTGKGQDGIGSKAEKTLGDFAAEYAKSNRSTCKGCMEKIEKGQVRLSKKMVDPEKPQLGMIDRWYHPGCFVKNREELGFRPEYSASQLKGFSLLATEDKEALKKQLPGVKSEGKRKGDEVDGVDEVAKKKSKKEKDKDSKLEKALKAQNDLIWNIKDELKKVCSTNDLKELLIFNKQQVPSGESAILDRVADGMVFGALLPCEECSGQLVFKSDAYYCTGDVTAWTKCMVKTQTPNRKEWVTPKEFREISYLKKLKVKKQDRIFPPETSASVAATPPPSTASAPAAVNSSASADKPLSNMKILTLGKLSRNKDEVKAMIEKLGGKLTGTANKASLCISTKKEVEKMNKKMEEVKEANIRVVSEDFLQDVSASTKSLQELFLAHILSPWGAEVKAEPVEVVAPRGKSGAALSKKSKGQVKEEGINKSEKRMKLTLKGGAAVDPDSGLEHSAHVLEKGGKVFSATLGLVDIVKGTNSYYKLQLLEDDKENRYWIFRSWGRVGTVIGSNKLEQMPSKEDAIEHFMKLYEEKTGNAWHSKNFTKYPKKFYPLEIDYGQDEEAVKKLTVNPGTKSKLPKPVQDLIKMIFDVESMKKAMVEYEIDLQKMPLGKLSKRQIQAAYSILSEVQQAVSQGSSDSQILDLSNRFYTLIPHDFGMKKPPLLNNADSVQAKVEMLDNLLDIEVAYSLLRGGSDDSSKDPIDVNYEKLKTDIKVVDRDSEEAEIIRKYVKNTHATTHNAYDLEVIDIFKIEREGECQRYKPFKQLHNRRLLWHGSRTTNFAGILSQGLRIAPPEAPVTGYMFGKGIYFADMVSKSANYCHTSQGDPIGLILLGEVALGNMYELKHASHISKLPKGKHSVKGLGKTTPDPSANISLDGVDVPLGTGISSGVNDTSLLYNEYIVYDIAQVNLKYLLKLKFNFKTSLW

[2] = system: Calu-6, a human lung carcinoma cell line; assay: 14-day culture of neoplastic cells with HAT, morphology and cell number (FIG. 2); assay type: cell-based; conditions: Calu-6, 10 micromolar, 14 days in culture (more than 300 without drug)
Excerpt: (§1) FIGS. 2A-D illustrate HAT-Pi effects on two neoplastic cell lines; a) Calu-6, a human lung carcinoma cell line; and, b) DU-145, a human prostate metastatic carcinoma cell line.
(§2) Additionally, the overall appearance of the cultures and the morphology of the surviving cells is altered in specific ways. First, the remaining (surviving) cells are tightly adherent to the surface of the culture dish giving them a “flattened” appearance. Second, neoplastic cell expansion is attributable to cytoplasmic growth, which leaves the smaller internal cell nuclei distinctive in outline. Third, many cell outlines are “ruffled” in some regions due to the presence of lamellipodia, plasmalemma projections that are the leading edges of cell expansion (open arrows in FIGS. 2B and 2D). Fourth, specialized cell-cell contact and communication regions are evident where the lamellipodia of two or more cells meet (closed arrows in FIGS. 2B and 2D). […] These characteristic features of HAT-treated neoplastic cells indicate that substrate-attachment-dependent survival and contact inhibition have both been restored in surviving neoplastic cells. […]

[3] = system: DU-145, a human prostate metastatic carcinoma cell line; assay: as above; assay type: cell-based; conditions: DU-145, 10 micromolar, 14 days in culture (more than 300 without drug)
Excerpt: as §1, §2

PARP1 [4] = molecular target: T1, PARP1; set-up: isolated HeLa cell nuclei; endogenous in cells; host or cells: isolated HeLa cell nuclei; conditions: 1 mM; Preiss, 1971; cited from earlier work
Target sequence in this assay (P09874 whole entry): as above

PARP1 [5] = conditions: solution; Rankin, 1989; cited from earlier work
PARP1 [6] = molecular target: T1, PARP1; conditions: solution; Pivazyan, 1992; cited from earlier work
Target sequence in this assay (P09874 whole entry, species assumed): as the sequence (P09874 whole entry) above

PARP1 [7] = molecular target: T2, PARP1 (Mus musculus, UniProt P11103); conditions: cultured 10T1/2 cells; Rankin, 1989; cited from earlier work
T2 construct: solution/cultured 10T1/2 cells; endogenous in cells; host or cells: cultured 10T1/2 cells

Unresectable Sarcoma = conditions: trial e, 1987, 5 patients, dose 1.3, iv, with radiation, multiple cycles up to 5 months; cited from earlier work
PARP1 [8] = molecular target: T1, PARP1; set-up: isolated HeLa cell nuclei; endogenous in cells; host or cells: isolated HeLa cell nuclei; conditions: 50 mM; Filetti, 1981; cited from earlier work
Target sequence in this assay (P09874 whole entry): as above

PARP1 [9] = molecular target: T1, PARP1; conditions: cited from earlier work
Target sequence in this assay (P09874 whole entry, species assumed): as the sequence (P09874 whole entry) above

[10] = after infusion of bromodeoxyuridine or iododeoxyuridine; cited from earlier work
[11] = cited from earlier work
HeLa cells = conditions: cell culture; Sumikawa 2005; cited from earlier work
[12] = schedule A, single oral dose 2.40 Grams IPdR per M^2/day
[13] = schedule B, single oral dose 1.20 Grams IPdR per M^2/day
[14] = schedule C, single oral dose 0.60 Grams IPdR per M^2/day
[15] = schedule D, single oral dose 0.30 Grams IPdR per M^2/day
[16] = schedule E, single oral dose 0.15 Grams IPdR per M^2/day

T2 sequence (P11103 whole entry): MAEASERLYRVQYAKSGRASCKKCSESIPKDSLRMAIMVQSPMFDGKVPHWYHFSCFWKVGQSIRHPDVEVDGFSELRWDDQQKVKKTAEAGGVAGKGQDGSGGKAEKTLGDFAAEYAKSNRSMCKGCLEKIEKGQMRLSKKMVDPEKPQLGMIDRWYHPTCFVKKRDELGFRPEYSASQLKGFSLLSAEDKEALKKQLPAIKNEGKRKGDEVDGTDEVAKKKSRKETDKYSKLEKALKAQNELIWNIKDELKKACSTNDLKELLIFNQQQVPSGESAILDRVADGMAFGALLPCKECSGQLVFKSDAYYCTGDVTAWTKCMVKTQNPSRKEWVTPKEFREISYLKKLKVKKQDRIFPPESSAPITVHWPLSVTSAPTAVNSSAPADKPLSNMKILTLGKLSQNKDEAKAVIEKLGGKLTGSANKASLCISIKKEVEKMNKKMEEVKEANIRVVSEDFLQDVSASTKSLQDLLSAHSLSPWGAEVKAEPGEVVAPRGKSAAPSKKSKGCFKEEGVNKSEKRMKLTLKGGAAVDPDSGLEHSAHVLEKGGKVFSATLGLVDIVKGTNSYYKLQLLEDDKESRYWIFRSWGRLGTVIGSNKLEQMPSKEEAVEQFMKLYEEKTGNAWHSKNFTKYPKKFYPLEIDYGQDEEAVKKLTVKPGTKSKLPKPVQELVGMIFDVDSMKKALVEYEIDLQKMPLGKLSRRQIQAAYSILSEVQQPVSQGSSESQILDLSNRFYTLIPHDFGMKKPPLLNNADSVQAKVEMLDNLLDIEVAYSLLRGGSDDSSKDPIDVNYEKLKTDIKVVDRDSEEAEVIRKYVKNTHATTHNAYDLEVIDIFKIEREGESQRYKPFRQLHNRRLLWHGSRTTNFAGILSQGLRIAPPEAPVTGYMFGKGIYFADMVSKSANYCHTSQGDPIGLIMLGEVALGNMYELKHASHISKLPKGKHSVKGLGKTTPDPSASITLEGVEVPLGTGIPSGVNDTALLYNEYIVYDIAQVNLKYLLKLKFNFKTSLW

SMILES: NC(=O)c1cccc(N)c1 [3-amino-benzamide]
- mode of inhibition (PARP1 [1]; Lineweaver-Burk plot, lines intersect vertical axis at control point): in competition with the substrate

SMILES: O=c1[nH]c(=O)n([C@H]2C[C@H](O)[C@@H](CO)O2)cc1Br [Bromodeoxyuridine, 5-bromodeoxyuridine]
- total number of cells per field [2]: < 50 cells per field
- total number of cells per field [3]: < 50 cells per field
- reported HAT inhibitory effect: inhibition (PARP1 [4]): 1 mM = 97% inhibition
- IC50 (PARP1 [5]): 15 µM
- Ki (PARP1 [6]): 35 µM
- IC50 (PARP1 [7]): 57 µM
- Ki (PARP1 [1]; intercept of Lineweaver-Burk plot, 50 micromolar inhibitor, pH 7.3, read-out: inhibition constant): 10 to 30 µM
- objective improvement (Unresectable Sarcoma): 20%
- subjective improvement (Unresectable Sarcoma): 20%
- reported HAT inhibitory effect (PARP1 [8]): 50 mM blocks hormone sensitization

SMILES: O=c1[nH]cc(Br)c(=O)[nH]1 [Bromouracil, 5-bromouracil]
- inhibition of PARP1 enzymatic activity (PARP1 [9]): demonstrated capacity to inhibit PARP1 enzymatic activity
- catabolite concentration accumulated in patient plasma [10]: ~100 µM

SMILES: O=c1ncc(I)cn1[C@H]1C[C@H](O)[C@@H](CO)O1 [IPdR, 5-iodo-2-pyrimidinone-2′-deoxyribose]
- IU AUC [11, 12]: 1057.8 µM·h
- IdU AUC [11, 12]: 12.2 µM·h
- [IU] plasma (iodouracil), average maximum concentration [11, 12]: 133 µM
- [IdU] plasma, average maximum concentration [11, 12]: 4.0 µM
- IU AUC [11, 13]: 102.7 µM·h
- IdU AUC [11, 13]: 4.7 µM·h
- [IU] plasma (iodouracil), average maximum concentration [11, 13]: 34.2 µM
- [IdU] plasma, average maximum concentration [11, 13]: 2.1 µM
- IU AUC [11, 14]: 17.2 µM·h
- IdU AUC [11, 14]: 3.2 µM·h
- [IU] plasma (iodouracil), average maximum concentration [11, 14]: 4.5 µM
- [IdU] plasma, average maximum concentration [11, 14]: 1.8 µM
- IU AUC [11, 15]: 4.5 µM·h
- IdU AUC [11, 15]: 0.3 µM·h
- [IU] plasma (iodouracil), average maximum concentration [11, 15]: 0.8 µM
- [IdU] plasma, average maximum concentration [11, 15]: 0.3 µM
- IU AUC [11, 16]: 1.0 µM·h
- IdU AUC [11, 16]: 1.7 µM·h
- [IU] plasma (iodouracil), average maximum concentration [11, 16]: 0.2 µM
- [IdU] plasma, average maximum concentration [11, 16]: 0.8 µM
- time to average peak concentration of iododeoxyuridine in patient plasma ([11]; single oral dose of IPdR): ≤ 2 h

SMILES: O=c1[nH]cc(I)c(=O)[nH]1 [Iodouracil, 5-iodouracil]
- inhibition of PARP1 enzymatic activity (PARP1 [9]): demonstrated capacity to inhibit PARP1 enzymatic activity
- catabolite concentration accumulated in patient plasma [10]: ~100 µM

SMILES: Cc1cn([C@H]2C[C@H](O)[C@@H](CO)O2)c(=O)[nH]c1=O [Thymidine, thymidine]
- concentration that induces HeLa cells to attach, flatten and undergo cell death and disintegration (HeLa cells): > 1.0 millimolar
